What follows are compounds tested against T1, RORγt (Homo sapiens, UniProt P51449) (assay: RGA Assay: nuclear receptor transactivation assay, RORγt transactivation of a luciferase reporter). Details: transiently transfected HEK 293 cells (pGL4.3 luc2P/GAL4UAS, pBIND Gal4DBD hRORC LBD), 20-24 hours incubation, luciferase readout.
T1 construct: expressed in transfected cells
T1 sequence (P51449 269-508 limits assumed): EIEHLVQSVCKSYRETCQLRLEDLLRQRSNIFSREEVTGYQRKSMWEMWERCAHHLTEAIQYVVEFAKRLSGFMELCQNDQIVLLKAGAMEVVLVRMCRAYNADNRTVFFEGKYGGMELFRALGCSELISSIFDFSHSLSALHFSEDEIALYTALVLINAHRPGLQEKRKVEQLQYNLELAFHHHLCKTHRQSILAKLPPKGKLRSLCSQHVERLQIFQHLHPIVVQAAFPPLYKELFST
Type: cell-based
Description: A nuclear receptor transactivation assay was performed to quantitate the ability of test compounds to inhibit RORγt transactivation of a luciferase reporter. A similar assay is described in: Khan et al., Bioorganic & Medicinal Chemistry Letters 23 (2013), 532-536. The system uses transiently transfected HEK 293 cells cotransfected with two plasmids (pGL4.3, luc2P/GAL4UAS/Hygro, and pBIND, Ga14DBD hRORC LBD1-3). The positive control is co-transiently transfected with both plasmids, and the negative control contains the pGL4.3 promoter sequence. Assays were assembled in 384 well plates where transiently transfected cells and test compound at varying concentrations were incubated for 20-24 hours. The next day, assays plates are taken out and equillibrated at RT for 20-30 minutes. Bright-Glo™ Luciferase Assay System is used to detect Luciferase production. After addition of Bright GLO detection reagent, the plates were incubated at RT for 20 minutes. The plates were read on an Envision plate reader to measure luminescence signal. The RLU signal is converted to POC relative to control and blank wells.
Compound Dilution Buffer:
Bright Glo Luciferase Assay System: Promega #E2620
Thaw lysis buffer provided in kit, add 100 mL lysis buffer to substrate powder.

| SMILES | IC50 [µM] |
| --- | --- |
| CC(C)Oc1ncnc(C2CC2)c1-c1ccc2c(n1)C1(CCCC1)CN2C(=O)NCc1ccc(S(C)(=O)=O)cc1 [Example 68] | 2.5 |
| CCOc1ncnc(C2CC2)c1-c1ccc2c(n1)C1(CCCC1)CN2C(=O)NCc1ccc(S(C)(=O)=O)cc1 [Example 69] | 1.1 |
| CCC1(C)CN(C(=O)NCc2ccc(S(=O)(=O)CC)cc2)c2ccc(-c3cncnc3C(C)C)nc21 (stereo not drawn) [Example 72] | 2.8 |
| CCC1(C)CN(C(=O)NCc2ccc(S(=O)(=O)CC)cc2)c2ccc(-c3c(OC)ncnc3C3CC3)nc21 (stereo not drawn) [Example 73] | 1.5 |
| COc1ncnc(C(F)(F)F)c1-c1ccc2c(n1)C1(CCCC1)CN2C(=O)NCc1ccc(S(C)(=O)=O)cc1 [Example 75] | 3.7 |
| CCS(=O)(=O)N1CCC(CNC(=O)N2CC3(CCCC3)c3nc(-c4c(OC)ncnc4C4CC4)ccc32)CC1 [Example 76] | 15 |
| COc1ncnc(C2CC2)c1-c1ccc2c(n1)C(C)(C)CN2C(=O)NCc1ccc(S(C)(=O)=O)cc1 [Example 77] | 4 |
| CNS(=O)(=O)c1ccc(CNC(=O)N2CC(C)(C)c3nc(-c4c(OC)ncnc4C4CC4)ccc32)cc1 [Example 78] | 2.4 |
| CCS(=O)(=O)c1ccc(CNC(=O)N2CC(C)(C)c3nc(-c4c(OC)ncnc4C(F)(F)F)ccc32)cc1 [Example 81] | 1.5 |
| CCS(=O)(=O)c1ccc(CNC(=O)N2CC3(CCCC3)c3nc(-c4cc(CN5CC[C@@H](O)C5)ccc4C4CC4)ccc32)cc1 [Example 82] | 7 |
| CCS(=O)(=O)c1ccc(CNC(=O)N2CC3(CCCC3)c3nc(-c4cc(CN5CC[C@H](O)C5)ccc4C4CC4)ccc32)cc1 [Example 83] | 6.9 |
| CCS(=O)(=O)c1ccc(CNC(=O)N2CC3(CCCC3)c3nc(-c4cc(CN5CC[C@@H](O)C5)ccc4C)ccc32)cc1 [Example 84] | > 30 |
| CCS(=O)(=O)c1ccc(CNC(=O)N2CC3(CCCC3)c3nc(-c4cc(CN5CC[C@H](O)C5)ccc4C)ccc32)cc1 [Example 85] | > 30 |
| CNS(=O)(=O)c1ccc(CNC(=O)N2CC3(CCCC3)c3cc(-c4ccc(F)cc4C)ncc32)cc1 [Example 86] | 2.6 |
| COc1ccc(-c2cc3c(cn2)N(C(=O)NCc2ccc(S(C)(=O)=O)cc2)CC3(C)C)c(C(F)(F)F)c1 [Example 87] | 3.9 |
| CC(C)c1ncncc1-c1cc2c(cn1)N(C(=O)NCc1ccc(S(C)(=O)=O)cc1)CC2(C)C [Example 88] | > 30 |
| Cc1cc(F)ccc1-c1cc2c(cn1)N(C(=O)NCc1ccc(S(C)(=O)=O)cc1)CC2(C)C [Example 89] | > 30 |
| COc1cc(C)c(-c2cc3c(cn2)N(C(=O)NCc2ccc(S(C)(=O)=O)cc2)CC3(C)C)cn1 [Example 90] | > 30 |
| Cc1cc(O)ccc1-c1cc2c(cn1)N(C(=O)NCc1ccc(S(C)(=O)=O)cc1)CC2(C)C [Example 91] | > 30 |
| Cc1cc(C#N)ccc1-c1cc2c(cn1)N(C(=O)NCc1ccc(S(C)(=O)=O)cc1)CC2(C)C [Example 92] | > 30 |
| CCS(=O)(=O)c1ccc(CNC(=O)N2CC(C)(C)c3cc(-c4c(OC)ncnc4C4CC4)ncc32)cc1 [Example 94] | 3.8 |
| CCS(=O)(=O)c1ccc(CNC(=O)N2CC3(CCCC3)c3cc(-c4cnc(OC)nc4C4CC4)ncc32)cc1 [Example 95] | > 30 |
| CCS(=O)(=O)c1ccc(CNC(=O)N2CC3(CCCC3)c3cc(Cl)ncc32)cc1 [Example 96] | > 30 |

Now those with a lower IC50, led by results:

| IC50 [µM] | SMILES |
| --- | --- |
| 0.65 | COc1ncnc(C2CC2)c1-c1ccc2c(n1)C1(CCCC1)CN2C(=O)NCc1ccc(S(C)(=O)=O)cc1 [Example 66] |
| 0.83 | CCS(=O)(=O)c1ccc(CNC(=O)N2CC3(CCCC3)c3nc(-c4c(OC(C)C)ncnc4C4CC4)ccc32)cc1 [Example 67] |
| 0.76 | CCOc1ncnc(C2CC2)c1-c1ccc2c(n1)C1(CCCC1)CN2C(=O)NCc1ccc(S(=O)(=O)CC)cc1 [Example 70] |
| 0.31 | CCS(=O)(=O)c1ccc(CNC(=O)N2CC3(CCCC3)c3nc(-c4c(OC)ncnc4C(F)(F)F)ccc32)cc1 [Example 74] |
| 0.38 | CCS(=O)(=O)c1ccc(CNC(=O)N2CC3(CCCC3)c3nc(-c4c(C)ncnc4C4CC4)ccc32)cc1 [Example 79] |
| 0.84 | Cc1ncnc(C2CC2)c1-c1ccc2c(n1)C1(CCCC1)CN2C(=O)NCc1ccc(S(C)(=O)=O)cc1 [Example 80] |
| 0.74 | CCS(=O)(=O)c1ccc(CNC(=O)N2CC3(CCCC3)c3cc(-c4c(OC)ncnc4C4CC4)ncc32)cc1 [Example 93] |
| 0.2 | CCS(=O)(=O)c1ccc(CNC(=O)N2CC3(CCCC3)c3nc(-c4c(C5CC5)ncnc4C4CC4)ccc32)cc1 [Example 97] |
| 0.37 | CCS(=O)(=O)c1ccc(CNC(=O)N2CC3(CCCC3)c3nc(-c4c(C5CC5)ncnc4C4CC4)ccc32)nc1 [Example 98] |
| 0.36 | CCS(=O)(=O)c1ccc(CNC(=O)N2CC3(CCCC3)c3nc(-c4c(C)ncnc4C(F)(F)F)ccc32)cc1 [Example 99] |
| 0.22 | CCc1ncnc(C2CC2)c1-c1ccc2c(n1)C1(CCCC1)CN2C(=O)NCc1ccc(S(=O)(=O)CC)cc1 [Example 100] |
| 0.42 | CCc1ncnc(C2CC2)c1-c1ccc2c(n1)C1(CCCC1)CN2C(=O)NCc1ccc(S(=O)(=O)CC)cn1 [Example 101] |
| 0.73 | CCS(=O)(=O)c1cnc(CNC(=O)N2CC3(CCCC3)c3nc(-c4c(OC)ncnc4C4CC4)ccc32)nc1 [Example 102] |

— patent publication US9745297B2, “Compounds as modulators of RORC” (Boehringer Ingelheim International GmbH, priority 2013, dated 2017)
